From PMC9072250 (Acta Pharmaceutica Sinica. B, 2021)
Counter-ions that a name gives are not always drawn.

Assays:
[1] = test system: PDE6A; conditions: PDE6A versus PDE5A1; cited from earlier work
[2] = test system: monocrotaline-induced PAH rat model; assay: Monocrotaline-induced PAH rat model; format: in vivo, Wister rats; conditions: PAH rats, 10.0 mg/kg (po) daily for 3 weeks, positive control

Compound	IC50 potency against PDE6A relative to PDE5A1 [1] [fold]	mean pulmonary artery pressure (mPAP) [2]	right ventricle hypertrophy index (RVHI%) [2]	wall thickness percentage (WT%) [2]
CCCc1nn(C)c2c(=O)[nH]c(-c3cc(S(=O)(=O)N4CCN(C)CC4)ccc3OCC)nc12 [sildenafil]	5	–	–	–
CCCc1nn(C)c2c(=O)[nH]c(-c3cc(S(=O)(=O)N4CCN(C)CC4)ccc3OCC)nc12 [sildenafil citrate]	–	decreased significantly	decreased significantly	decreased significantly
